In test [1] the test system is C. tropicalis CBS 94 biofilm. The test is described as follows: Morphology of biofilm-located cells, scanning electron microscopy. Format: cell-based, Candida tropicalis. The conditions noted are these: SEM, 72 h, 37 °C, 1.56 µM peptide.
Another test has as its system Candida cells. Put plainly: Fungicide effect, spotting of treated cells on solid YPD medium. Format: cell-based, Candida species. The conditions noted are these: 1.56–25 µM, 24 h treatment, dilutions spotted on solid YPD medium, 48 h, 30 °C. The protocol:
To determine whether the inhibitory effect of the peptides is generated by fungistatic or fungicide action, the Candida cells were treated with the peptides in the same concentration range (1.56–25 µM) as in the growth inhibition assay. After 24 h 5 µL sample from the untreated control cells and from the peptide treated cells was added to 95 µL water and diluted further 10- and 100-fold. From each dilution, 5 µL was placed on solid medium and the growth of the control and peptide treated cells was compared after 48 h incubation at 30 °C. This assay confirmed that all the effective peptides, NCR335N1–19, NCR335N7–21, NCR335C1–33, NCR335C13–33, NCR335C17–33, NCR169C17–38, NCR169C17–38ox, NCR169C17–38W10,20/A provoked growth inhibition through fungicidal actions (Figure A2). The fungicide concentrations, required for the complete elimination of the Candida cells, were either equal to or twice higher than the minimum inhibitory concentrations presented in Table 2.
The same initial experimental setting was used to determine the fungicide effect of the peptides. Five µL samples were taken from the cultures after 24 h and were added to 95 µL sterile distilled water, and diluted to 10- and 100-fold (indicated as 10^4, 10^3 and 10^2 based on the cell number of the control culture in Figure A2). Five µL from each dilution were placed on solid YPD medium and the growth of the strains was detected after 48 h incubation at 30 °C.

The subject of test [2] is C. tropicalis CBS 94 biofilm. Put plainly: Biofilm formation assay, XTT. It counts as cell-based, Candida tropicalis. The conditions noted are these: 72 h, 37 °C, 5 % CO2, 1/8AIM medium, p ≤ 0.0001. (Tetrazolium dyes change colour on reduction, which living cells bring about.)
In test [3] the test system is C. albicans SZMC 1458 biofilm. Put plainly: Biofilm formation assay, XTT. The following applies: 72 h, 37 °C, 5 % CO2, 1/8AIM medium, p ≤ 0.0001. Format: cell-based, Candida albicans.
The subject of another test is C. albicans ATCC 10231. Put plainly: Yeast-hypha morphology, bright-field microscopy. It counts as cell-based, Candida albicans. The conditions noted are these: 3.12 µM peptide, 48 h, 1/8AIM medium, sub-lethal concentration. The text has this:
(§1) As hyphae formation is an important virulence factor, we investigated how the broad range activity peptides, NCR335C17–33, NCR169C17–38 and NCR169C17–38ox affect the morphological switch of C. albicans ATCC 10231 and C. tropicalis between the hyphal and yeast growth forms at sub-lethal concentrations (Figure 1). […] However, not only the morphology changed, but the cell number also declined, particularly in the latter case.
(§2) To induce morphological change of C. albicans and C. tropicalis YNB medium was changed for eight-fold diluted AIM-V+AlbuMAX (BSA) medium (Gibco, Thermo Fisher Scientific, Dublin, Ireland) referred to as 1/8AIM in the text.
(§3) Bright-field microscopy. The morphology of C. albicans ATCC 10231 and C. tropicalis cells was examined after 48 h incubation with the selected peptides (NCR335C17–33 and NCR169C17–38) by Zeiss Axio Observer inverted microscope (Carl Zeiss AG, Jena, Germany). The concentration of the NCR335C17–33 was 1.56 and 3.12 µM, NCR169C17–38 1.56 or 3.12 µM while NCR169C17–38ox 0.78 or 3.12 µM, the initial cell concentration was set to 4 × 10^4 cell/mL. Cells cultivated without peptides were used as control.

For test [4], the system named is C. albicans ATCC 10231 biofilm. Put plainly: Biofilm formation assay, XTT. Format: cell-based, Candida albicans. The following applies: 72 h, 37 °C, 5 % CO2, 1/8AIM medium, p ≤ 0.0001.
Test [5] deals with C. albicans ATCC 10231 biofilm. Put plainly: Morphology of biofilm-located cells, scanning electron microscopy. The conditions noted are these: SEM, 72 h, 37 °C, sub-lethal concentrations. Format: cell-based, Candida albicans.
The next test has as its system C. tropicalis CBS 94. Put plainly: Yeast-hypha morphology, bright-field microscopy. Format: cell-based, Candida tropicalis. The conditions noted are these: 1.56 µM peptide, 48 h, 1/8AIM medium.
Excerpt: as §1, §2, §3

For test [6], the system named is Candida parapsilosis CBS 604. The test is described as follows: microbe, parasite or virus in culture. The conditions noted are these: micro-dilution, YNB medium, 4 × 10^4 cell/mL, 48 h, 30 °C, OD 620 nm; MIC = growth inhibition ≥90%; peptides 25 to 1.56 µM, fluconazole 200 to 0.78 µM; three biological repeats in triplicates. Format: cell-based. On the procedure:
(§4) The antifungal activity of all the 14 peptides was tested against the following opportunistic human pathogen Candida species and strains: C. albicans strains ATCC 10231, SC 5314 and SZMC 1458, C. auris 0381, C. glabrata CBS 138, C. parapsilosis CBS 604 and C. tropicalis CBS 94.
(§5) All the Candida strains (Table 4) were grown overnight in YPD medium (1% pepton, 1% dextrose, 0.5% yeast extract) at 30 °C in water bath shaker prior to each experiments. The cells were harvested by centrifugation (5 min, 3000× g) washed twice with sterile distilled water and suspended in 5-fold diluted Difco Yeast Nitrogen Base w/o Amino Acids medium (Becton, Dickinson and Company, Sparks, MD, USA) supplemented with 1% dextrose, referred to as YNB medium in the text. Cells were counted in Bürker chamber and diluted to the proper concentration.
(§6) The growth inhibition of the peptides listed in Table 1 was tested in 96-well microtiter plates on Candida strains. The minimal inhibitory concentration (MIC) was determined with the micro-dilution method by adding 5 µL serially two-fold-diluted peptide solution to 95 µL of cell suspension (4 × 10^4 cell/mL) in YNB medium. After 48 h of incubation at 30 °C the optical density of the cultures was measured at 620 nm in SPECTROstar Nano plate reader (BMG LabTech, Offenburg, Germany). Minimal inhibitory concentration was defined as growth inhibition ≥90% compared to 100% growth of the untreated control. The experiments were carried out in three biological repeats always in triplicates.

The next test concerns C. auris. The following applies: for reduction of MIC in the synergistic combination: compared with single use. On the procedure: Amphotericin B, due to its high toxicity was not included in this assay.
The effects of the different combinations of fluconazole and NCR335C17–33, NCR169C17–38 or NCR169C17–38ox were determined by standard checkerboard titration method. The fluconazole was tested in a concentration range from 6.25 to 75 µM, NCR169C17–38 and NCR169C17–38ox from 0.78 to 12.50 µM, NCR335C17–33 from 1.56 to 25 µM. The initial cell concentration in each well was 4 × 10^4 cell/mL. After the incubation for 72 h at 30 °C, the optical density of the cultures was detected at 620 nm in SPECTROstar Nano plate reader (BMG LabTech, Offenburg, Germany). The inhibitory concentrations were determined for each compound alone and in combinations. The experiments were carried out at least three times. The effect of combinations was evaluated by fractional inhibitory concentration (FIC) index. FIC = FICA + FICB. FICA = (MICA in combination)/(MICA alone); FICB = (MICB in combination)/(MICB alone)

The test system of test [7] is C. albicans SC 5314 biofilm. Put plainly: Biofilm formation assay, XTT. Format: cell-based, Candida albicans. The conditions noted are these: 72 h, 37 °C, 5 % CO2, 1/8AIM medium, p ≤ 0.0001.
In another test the test system is Candida auris 0381. The test is described as follows: microbe, parasite or virus in culture. Format: cell-based. The following applies: micro-dilution, YNB medium, 4 × 10^4 cell/mL, 48 h, 30 °C, OD 620 nm; MIC = growth inhibition ≥90%; peptides 25 to 1.56 µM, fluconazole 200 to 0.78 µM; three biological repeats in triplicates. The protocol: as §4, §5, §6; also: key: -: no growth inhibition was observed
Where [8] appears, read: NCR169C17–38 + NCR169C17–38ox, C. auris.
Setting [9] is: NCR169C17–38 + NCR335C17–33, C. auris.
Where [10] appears, read: checkerboard, C. auris, 72 h, 30 °C, drug A fluconazole + drug B NCR169C17–38.

Where two headings read alike, the source gives them in different places. Where a SMILES comes first, the peptide text is derived from it.
For Minimal inhibitory concentration, Cp CBS 604 in this document: key: -: no growth inhibition was observed.

Turning to `CC[C@H](C)[C@H](NC(=O)[C@H](CCCCN)NC(=O)[C@H](Cc1ccccc1)NC(=O)[C@H](CC(C)C)NC(=O)[C@@H]1CCCN1C(=O)[C@H](CCCCN)NC(=O)[C@H](CCCCN)NC(=O)[C@H](CO)NC(=O)[C@@H](N)CCCCN)C(=O)N[C@@H](Cc1c[nH]c2ccccc12)C(=O)N[C@@H](CCCCN)C(=O)N[C@@H](CS)C(=O)N[C@H](C(=O)N[C@@H](CCC(=O)O)C(=O)N[C@@H](CC(N)=O)C(=O)N[C@H](C(=O)N[C@@H](CS)C(=O)N[C@H](C(=O)N[C@@H](CC(C)C)C(=O)N[C@@H](Cc1c[nH]c2ccccc12)C(=O)N[C@@H](Cc1ccc(O)cc1)C(=O)N[C@@H](CCCCN)C(N)=O)C(C)C)C(C)C)C(C)C` [NCR169C17–38] (H-KSKKPLFKIWKCVENVCVLWYK-NH2; N-terminus assumed), the “morphology of cells in the biofilm” value was “the cell number was drastically reduced, and the yeast form was also dominant” in test [1]; “reduced the abundance of the hyphal form” in test [5]. For the same molecule, in the test with Candida cells, the “growth inhibition by fungistatic or fungicide action” value was “fungicidal”. Moreover, the “concentration significantly inhibiting biofilm formation, relative to MIC” value is listed as “half MIC” in [2], “MIC” in [3], “half MIC” in test [4] and “one-fourth of the MIC” in [7]. The “effect on hyphal growth” value with C. albicans ATCC 10231 is listed as “completely inhibited the hyphal growth”. For the same molecule, in the test on C. tropicalis CBS 94, the “effect on hyphal/yeast growth form” value is “shifted to the yeast form”. In addition, in test [6], the “Minimal inhibitory concentration, Cp CBS 604” value is “-”. Also, the Action result in the test with C. auris (setting [8]) is recorded as “Synergism”; in the test on C. auris (setting [9]), “Synergism”; in the test with C. auris (fluconazole + NCR169C17–38, C. auris) it was “Additive”. For the same molecule, the “reduction of MIC in the synergistic combination” value in the test on C. auris (setting [8]) is 2 ×; in the test on C. auris (NCR169C17–38 + NCR335C17–33 (3.12 μM), C. auris), 4 ×. For the same molecule, the “concentration of drug A for the indicated action” value with C. auris (checkerboard, C. auris, 72 h, 30 °C, drug A NCR169C17–38 + drug B NCR169C17–38ox) turned out to be 3.12 µM. Besides, the FICB in the test with C. auris (setting [10]) is 0.125. Moreover, the “concentration of drug B for the indicated action” value in the test on C. auris (setting [10]) is reported as 0.78 µM.
As for `CC[C@H](C)[C@H](NC(=O)[C@@H]1CCCN1C(=O)[C@@H](NC(=O)[C@H](CS)NC(=O)[C@H](Cc1ccc(O)cc1)NC(=O)[C@H](CO)NC(=O)[C@H](CCCCN)NC(=O)[C@H](CCCNC(=N)N)NC(=O)[C@H](CS)NC(=O)[C@H](CCCNC(=N)N)NC(=O)[C@@H](NC(=O)[C@H](CC(N)=O)NC(=O)[C@H](C)NC(=O)[C@H](CCCNC(=N)N)NC(=O)[C@H](CCCNC(=N)N)NC(=O)[C@H](CC(C)C)NC(=O)[C@@H](N)CCCCN)C(C)C)C(C)C)C(N)=O` [NCR335C17–33] (H-KLRRANVRCRKSYCVPI-NH2; N-terminus assumed), the “morphology of cells in the biofilm” value in test [1] is reported as “practically only the yeast form was present”; in [5] it was “reduced the abundance of the hyphal form”. Also, in the test on Candida cells, the “growth inhibition by fungistatic or fungicide action” value is “fungicidal”. In addition, the “concentration significantly inhibiting biofilm formation, relative to MIC” value in test [2] was “MIC”; in [3], “half MIC”; in [4], “half MIC”; in test [7], “half MIC”. Moreover, in the test on C. albicans ATCC 10231, the “effect on hyphal growth” value is on record as “completely inhibited the hyphal growth”. The “effect on hyphal/yeast growth form” value in the test on C. tropicalis CBS 94 is reported as “shifted to the yeast form”. In the test with Candida auris 0381, the “Minimal inhibitory concentration, Cau 0381” value is “-”. For the same molecule, the Action entry is listed as “Synergism” in the test on C. auris (setting [9]) and “Indifferent” in the test on C. auris (fluconazole + NCR335C17–33, C. auris). Besides, in the test on C. auris (checkerboard, C. auris, 72 h, 30 °C, drug A NCR169C17–38 + drug B NCR335C17–33), the “concentration of drug B for the indicated action” value amounted to 3.12 µM. Moreover, in the test with C. auris (checkerboard, C. auris, 72 h, 30 °C, drug A NCR169C17–38 + drug B NCR335C17–33, * fictitious value, 25 µM used as MIC of NCR335C17–33), the FICB is recorded as at most 0.25.

Source of the values: article PMC8037406, “Symbiotic NCR Peptide Fragments Affect the Viability, Morphology and Biofilm Formation of Candida Species” (International Journal of Molecular Sciences, 2021).
